Assay results: ChEMBL document CHEMBL5352419, “Design, synthesis, and biological evaluation of tetrahydroquinoline amphiphiles as membrane-targeting antimicrobials against pathogenic bacteria and fungi” (Eur J Med Chem, 2022)
In brackets after ≈: the same amount, converted by molar mass.

How the values were obtained:
Escherichia coli = test: Antimicrobial activity against Escherichia coli ATCC25922 assessed as bacterial growth inhibition incubated for 24 hrs by Muller Hinton broth based dilution assay; type: functional
Staphylococcus aureus [1] = test: Antimicrobial activity against methicillin-resistant Staphylococcus aureus N315 assessed as bacterial growth inhibition incubated for 24 hrs by Muller Hinton broth based dilution assay; type: functional
Pseudomonas aeruginosa = test: Antimicrobial activity against Pseudomonas aeruginosa ATCC9027 assessed as bacterial growth inhibition incubated for 24 hrs by Muller Hinton broth based dilution assay; type: functional
Candida albicans [2] = test: Antimicrobial activity against Candida albicans CMCC98001 assessed as fungal growth inhibition incubated for 48 hrs by Sabouraud Dextrose broth based dilution assay; type: functional
Klebsiella pneumoniae [3] = test: Antimicrobial activity against Klebsiella pneumoniae ATCC10031 assessed as bacterial growth inhibition incubated for 24 hrs by Muller Hinton broth based dilution assay; type: functional
Acinetobacter baumannii [4] = test: Antimicrobial activity against Acinetobacter baumannii R2889 assessed as bacterial growth inhibition incubated for 24 hrs by Muller Hinton broth based dilution assay; type: functional
Klebsiella pneumoniae [5] = test: Antimicrobial activity against Klebsiella pneumoniae ATCC14581 assessed as bacterial growth inhibition incubated for 24 hrs by Muller Hinton broth based dilution assay; type: functional
Candida albicans [6] = test: Antimicrobial activity against Candida albicans ATCC10231 assessed as fungal growth inhibition incubated for 48 hrs by Sabouraud Dextrose broth based dilution assay; type: functional
Acinetobacter baumannii [7] = test: Antimicrobial activity against Acinetobacter baumannii ATCC17978 assessed as bacterial growth inhibition incubated for 24 hrs by Muller Hinton broth based dilution assay; type: functional
Staphylococcus aureus [8] = test: Antimicrobial activity against methicillin-resistant Staphylococcus aureus NCTC10442 assessed as bacterial growth inhibition incubated for 24 hrs by Muller Hinton broth based dilution assay; type: functional
Staphylococcus aureus [9] = test: Antimicrobial activity against Staphylococcus aureus ATCC29213 assessed as bacterial growth inhibition incubated for 24 hrs by Muller Hinton broth based dilution assay; type: functional
[10] = Hemolytic activity in rabbit RBC incubated for 1 hr by absorbance based microplate reader assay; type: toxicity, cell-based, Oryctolagus cuniculus, Erythrocyte; details: rabbit red blood cells (erythrocytes)

| Structure (SMILES) | MIC (Escherichia coli) [mg/L] | MIC (Staphylococcus aureus [1]) [mg/L] | MIC (Pseudomonas aeruginosa) [mg/L] | MIC (Candida albicans [2]) [mg/L] | MIC (Klebsiella pneumoniae [3]) [mg/L] | MIC (Acinetobacter baumannii [4]) [mg/L] | MIC (Klebsiella pneumoniae [5]) [mg/L] | MIC (Candida albicans [6]) [mg/L] | MIC (Acinetobacter baumannii [7]) [mg/L] | MIC (Staphylococcus aureus [8]) [mg/L] | MIC (Staphylococcus aureus [9]) [mg/L] | HC50 at 1 h [10] [µg/mL] |
| --- | --- | --- | --- | --- | --- | --- | --- | --- | --- | --- | --- | --- |
| CCCCCN1CCCc2cc(OCCCCNC(=N)N)ccc21 | 12.5 (≈ 37.6 µM) | 1.56 (≈ 4.69 µM) | 25 (≈ 75.2 µM) | 50 (≈ 150 µM) | 6.25 (≈ 18.8 µM) | 25 (≈ 75.2 µM) | 12.5 (≈ 37.6 µM) | 50 (≈ 150 µM) | 12.5 (≈ 37.6 µM) | 1.56 (≈ 4.69 µM) | 1.56 (≈ 4.69 µM) | 178 |
| CC(C)=CCN1CCCc2cc(OCCCCNC(=N)N)ccc21 | 25 (≈ 75.6 µM) | 1.56 (≈ 4.72 µM) |  | > 50 |  |  |  | > 50 |  | 3.12 (≈ 9.46 µM) | 3.12 (≈ 9.46 µM) | > 200 |
| CCCCCN1CCCc2cc(OCC(=O)N[C@@H](CCCNC(=N)N)C(=O)OC)ccc21 | > 50 | 25 (≈ 55.9 µM) |  | > 50 |  |  |  | > 50 |  | 25 (≈ 55.9 µM) | 50 (≈ 112 µM) | > 200 |
| CCCCCCCN1CCCc2cc(OCCCCBr)ccc21 | 25 (≈ 65.4 µM) | 6.25 (≈ 16.3 µM) |  | 12.5 (≈ 32.7 µM) |  |  |  | 25 (≈ 65.4 µM) |  | 6.25 (≈ 16.3 µM) | 12.5 (≈ 32.7 µM) | > 200 |
| CCCCCCCCCN1CCCc2cc(OCC(=O)N[C@@H](CCCNC(=N)N)C(=O)N[C@@H](CCCNC(=N)N)C(=O)OC)ccc21 | 3.12 (≈ 4.74 µM) | 1.56 (≈ 2.36 µM) | 6.25 (≈ 9.47 µM) | 50 (≈ 75.8 µM) | 3.12 (≈ 4.74 µM) | 25 (≈ 37.9 µM) | 3.12 (≈ 4.74 µM) | > 50 | 6.25 (≈ 9.47 µM) | 1.56 (≈ 2.36 µM) | 1.56 (≈ 2.36 µM) | > 200 |
| CCCCCCCCCN1CCCc2cc(OCCCCBr)ccc21 | 25 (≈ 60.9 µM) | 12.5 (≈ 30.5 µM) |  | 50 (≈ 122 µM) |  |  |  | 50 (≈ 122 µM) |  | 12.5 (≈ 30.5 µM) | 6.25 (≈ 15.2 µM) | > 200 |
| CCCCCCCCCN1CCCc2cc(OCC(=O)N[C@@H](CCCNC(=N)N)C(N)=O)ccc21 | 3.12 (≈ 6.39 µM) | 1.56 (≈ 3.19 µM) | 6.25 (≈ 12.8 µM) | 3.12 (≈ 6.39 µM) | 3.12 (≈ 6.39 µM) | 12.5 (≈ 25.6 µM) | 3.12 (≈ 6.39 µM) | 3.12 (≈ 6.39 µM) | 12.5 (≈ 25.6 µM) | 1.56 (≈ 3.19 µM) | 1.56 (≈ 3.19 µM) | > 200 |
| CC(C)=CCN1CCCc2cc(OCCCCCCNC(=N)N)ccc21 | 6.25 (≈ 17.4 µM) | 0.78 (≈ 2.18 µM) | 25 (≈ 69.7 µM) | 12.5 (≈ 34.9 µM) | 6.25 (≈ 17.4 µM) | 12.5 (≈ 34.9 µM) | 6.25 (≈ 17.4 µM) | 12.5 (≈ 34.9 µM) | 25 (≈ 69.7 µM) | 0.78 (≈ 2.18 µM) | 1.56 (≈ 4.35 µM) | 184 |
| CC(C)=CCN1CCCc2cc(OCCCCCCCCBr)ccc21 | > 50 | > 50 |  | 50 (≈ 122 µM) |  |  |  | 50 (≈ 122 µM) |  | > 50 | > 50 | > 200 |
| CCCCCCCN1CCCc2cc(O)ccc21 | > 50 | 12.5 (≈ 50.5 µM) |  | > 50 |  |  |  | > 50 |  | 12.5 (≈ 50.5 µM) | 12.5 (≈ 50.5 µM) | > 200 |
| CCCCCN1CCCc2cc(OCCCCBr)ccc21 | > 50 | 25 (≈ 70.6 µM) |  | 50 (≈ 141 µM) |  |  |  | 50 (≈ 141 µM) |  | 25 (≈ 70.6 µM) | 25 (≈ 70.6 µM) | > 200 |
| CC(C)=CCN1CCCc2cc(OCCCBr)ccc21 | > 50 | 25 (≈ 73.9 µM) |  | 50 (≈ 148 µM) |  |  |  | 50 (≈ 148 µM) |  | 25 (≈ 73.9 µM) | 25 (≈ 73.9 µM) | > 200 |
| CCCCCCCCCN1CCCc2cc(OCCCCCCCCBr)ccc21 | > 50 | 25 (≈ 53.6 µM) |  | > 50 |  |  |  | > 50 |  | 50 (≈ 107 µM) | 25 (≈ 53.6 µM) | > 200 |
| CCCNCCCCOc1ccc2c(c1)CCCN2CC=C(C)C | > 50 | 25 (≈ 75.6 µM) |  | > 50 |  |  |  | > 50 |  | 25 (≈ 75.6 µM) | 50 (≈ 151 µM) | > 200 |
